The test system of data set [1] is Mus musculus. The data set is described as follows: Antiwrithing activity in sc dosed mouse assessed as prevention of acetylcholine-induced abdominal constriction response. The settings on record: Abdomen. The data set is classed as functional. (In general: An intraperitoneal irritant provokes the stretching counted in writhing tests.)
In data set [2] the test system is Mus musculus. The data set is described as follows: Antiwrithing activity in sc dosed mouse assessed as prevention of phenyl-p-benzoquinone-induced abdominal constriction response. Type of data set: functional. Particulars: Abdomen.
The test system of data set [3] is Mus musculus. Nature of the data set: Induction of convulsion in mouse at 100 mg/kg, sc. The data set is classed as organism-based. On the set-up: dose 100 mg/kg, route subcutaneous. The settings on record: in vivo.
Data set [4] concerns Rattus norvegicus. The data set is described as follows: Induction of convulsion in rat at 120 mg/kg, sc. The settings on record: in vivo. Type of data set: organism-based. On the set-up: dose 120 mg/kg, route subcutaneous.
In data set [5] the test system is Rattus norvegicus. Nature of the data set: Toxicity in rat assessed as mortality at 160 mg, sc. Type of data set: organism-based. The settings on record: in vivo.
Data set [6] relates to Rattus norvegicus. Nature of the data set: Narcotic analgesic activity in sc dosed rat assessed as inhibition of phenazocine-induced effect by D'Amour-Smith tail flick test. Type of data set: functional. Particulars: Rattus norvegicus, Tail, sc. In general terms: In hot-plate and tail-flick tests a longer latency is read as antinociception.
Data set [7] has as its system Rattus norvegicus. The data set is described as follows: Narcotic analgesic activity in rat assessed as inhibition of phenazocine-induced effect at 80 mg, sc by D'Amour-Smith tail flick test. The data set is classed as functional.

Usually ED50 stands for the dose that gives a 50% effect, or the effect in half of the subjects. In the case of `COC(=O)[C@H]1C[C@H]2CC[C@H]([C@H]1Cc1ccccc1)N2C` (racemic), the 50% effective dose (ED50) is 4.4 mg/kg in the data set with Mus musculus [1], 20 mg/kg in the data set with Mus musculus [2] and 54 mg/kg in the data set on Rattus norvegicus [6]. Further, the Activity result in the data set on Mus musculus [3], in the data set with Rattus norvegicus [4] and with Rattus norvegicus [5] was “Toxic” throughout. The “inhibition (INH)” value in the data set with Rattus norvegicus [7] turned out to be 69%.

The values above are taken from ChEMBL document CHEMBL3272190, “(2-exo-3-endo)-2-Aryltropane-3-carboxylic esters, a new class of narcotic antagonists” (J Med Chem, 1978).
